# Measurements taken from patent publication US8669288B2, “Lysine salts of 4-((phenoxyalkyl)thio)-phenoxyacetic acid derivatives” (Janssen Pharmaceutica N.V., priority 2005, dated 2014).
# Where a name gives a salt, the structure may show the parent alone.
# Legend:
# Assay type in all cases: physicochemical
# pKa = assay: pKa
# [1] = Solubility in distilled water
# [2] = DVS isotherm, cycling humidity 0-90% RH; conditions: 25° C., 0-90% RH in 10% RH increments
# Description: The non-hydrate, L-lysine salt of the compound of formula (Ia) was subjected to cycling humidity conditions, with results as shown in FIG. 3. More specifically, the sample was analyzed through a full cycle in step mode at 25° C., from 0-90% RH (relative humidity) in 10% RH increments. The equilibration conditions set were as follows: dm/dt of 0.0007; dm/dt window of 5 mins; minimum and maximum stages of 15 and 360 minutes. Data was collected in 1 minute intervals. Nitrogen was used as the carrier gas.
Compound,pKa (pKa),"solubility ([1]; pH 7.4, water)","solubility ([1]; water, pH 2.0)",Form conversion under cycling humidity conditions [2]
"CCO[C@H](COc1ccc(C(F)(F)F)cc1)CSc1ccc(OCC(=O)O)c(C)c1 [Compound of formula (la), (R)-{4-[2-Ethoxy-3-(4-trifluoromethyl-phenoxy)-propylsulfanyl]-2-methyl-phenoxy}-acetic acid]",3.63,~1000 µg/mL,< 2 µg/mL,
CCO[C@H](COc1ccc(C(F)(F)F)cc1)CSc1ccc(OCC(=O)O)c(C)c1 [{4-[2-Ethoxy-3-(4-trifluoromethyl-phenoxy)-propylsulfanyl]-2-methyl-phenoxy}-acetic acid L-Lysine non-hydrate salt],,,,reversibly converts to the corresponding di-hydrate form by absorbing water
